Structure (SMILES) | melting point
CCOc1ccc(OCC)c(C[C@@H](C(=O)[C@H](Cc2cc(OCC)ccc2OCC)N2C(=O)c3ccccc3C2=O)N2C(=O)c3ccccc3C2=O)c1 | 92 to 93 °C
O=[N+]([O-])c1cc(Br)ccc1-c1ccc(Br)cc1[N+](=O)[O-] | 143 to 146 °C
Cc1c(S(C)(=O)=O)cc(C(C)(C)C)c(O)c1C(=O)Nc1ccc(S(=O)(=O)C(F)(F)F)cc1Cl | 220 to 221 °C
CCOC(=O)C1=C(COC2CCNCC2)NC(C)=C(C(=O)OC)C1c1ccccc1Cl (configuration not stated) | 175 to 176 °C
CC(C)(C)OC(=O)N(CCOc1cccc2[nH]cc(Cl)c12)Cc1ccccc1 | 106 to 108 °C
CC1(C)OCC(COC(=O)Cc2cccc3c(=O)cc(C4=CCCCC4)oc23)O1 (configuration not stated) | 104 to 105 °C
CCCCCCCCCCCCC1=C(OC(C)=O)C(=O)c2c(Cl)cccc2C1=O | 57 to 59 °C
O=C(O)COc1ccnc2ccccc12 | 274 to 276 °C
COc1cc(OC)cc(S(=O)(=O)c2ccc(N)c(C)c2)c1 | 121 to 123 °C
CC1CCc2ccc(OCC(O)CNC(C)(C)C)cc2O1 (configuration not stated) | 92 to 94 °C
COC(=O)C(=O)c1ccc(SCCOc2ccc3ccccc3c2)cc1 | 124 to 125 °C
CC(C)(C)OC(=O)N[C@H](CO)C(=O)OC(c1ccccc1)c1ccccc1 | 116 to 117 °C
CCOC(=O)c1c(CCCCn2cncn2)nc2sc3c(c2c1-c1ccc(OC)c(OC)c1)CCN(C(=O)c1ccc(Cl)cc1)C3 | 165 to 166 °C
COCc1c(C(=O)OC)c2cc(O)ccc2n1C | 168 to 170 °C
N#CCc1ccc(NS(=O)(=O)c2cccc(Cl)c2Cl)cc1 | 202 to 206 °C
CCOC(=O)c1ccc(-c2cccc3cncn23)cc1 | 118 to 119 °C
CC(=Cc1ccc(C(=O)O)cc1)c1ccc2c(c1)OCCC2(C)C | 242 to 244 °C
Cc1csc(NC(=O)c2nc(C)cc(C#N)c2C)n1 | 200 °C
Cc1ccc2oc(CC(=O)O)c(C)c2c1 | 116 to 117 °C
CCCN1CC(C)CC2c3cccc4[nH]c(SC)c(c34)CC21 (configuration not stated) | 216 to 219 °C
O=C(NCc1ccccc1Cl)c1cccnc1OCc1cccnc1 | 91 to 93 °C
O=C(N(Cc1cccnc1)c1ccc(Cl)cc1)C(F)(F)F | 80 to 81 °C
C[C@@H](n1cnc2cc(Sc3ccccc3)ccc2c1=O)[C@](O)(Cn1cncn1)c1ccc(F)cc1F | 84 to 87 °C
CN(C)c1ccc(-c2cc3nccnc3[nH]2)cc1CCCO | 203 to 204 °C

Structure (SMILES) | melting point
CCC(CC)Nc1cc(C)nc2c1ncn2-c1c(C)cc(C)cc1C | 78 to 80 °C
CCNC(=O)Nc1nc2cc(-c3cnc(OC)nc3)ccn2n1 | 243 to 248 °C
N#Cc1ccc(N(Cc2ccc(OS(N)(=O)=O)cc2)n2cnnc2)cc1-c1ccc(F)cc1 | 197 to 199 °C
O=[N+]([O-])c1cccc2nn(-c3ccccc3)nc12 | 155 to 156 °C
COc1ccc(-c2ccc(C(N)=O)cc2)cc1Br | 246 to 250 °C
O=c1oc(C(F)(F)F)nc(-c2ccccc2)c1-c1ccccc1 | 118 °C
CCOc1cc2cc3c(Nc4cc(OC)c(Cl)cc4C)c(C#N)cnc3cc2cc1OCCN(CC(N)=O)CC(N)=O | 168 to 170 °C
CC(C)(C)C(=O)Nc1cc2c(O)nc[nH]c-2n1 | 295 °C
Fc1cc(CC2(Cc3ccnc(F)c3)c3ccccc3-c3ncncc32)ccn1 | 171 to 174 °C
CN(c1ncnc2c1ncn2C1OC(CO)C(O)C1O)n1cccc1 (configuration not stated) | 195 to 197 °C
COc1ccccc1N1CCN(CCCNC(=O)c2cc(OC(C)=O)cc3c(=O)c(C)c(-c4ccccc4)oc23)CC1 | 148 to 149 °C
CCCCOc1c(CNC(=O)OCC2c3ccccc3-c3ccccc32)n(CC(C)C)c(=O)c2ccc(-c3nc(C(=O)OCC)cs3)cc12 | 203 to 204 °C
CC1=CC(c2cccc(Cl)c2)C2=C(CC(C)(C)CC2=O)N1 (configuration not stated) | 183 to 185 °C
CCN1c2ncccc2C(=O)N(C)c2cccnc21 | 130 to 132 °C
CCOc1ccc(-n2nnnc2C(F)(F)F)cc1C=O | 87.9 to 88.4 °C
COC(=O)c1c(S(C)(=O)=O)ccc(C(=O)C2C(=O)CCCC2=O)c1Cl | 160 to 162 °C
CC(C)(C)Nc1c(NCc2cc3cc([N+](=O)[O-])ccc3o2)c(=O)c1=O | > 300 °C
O=C(OCCN1CCCCCC1)c1ccccc1Nc1ccnc2cc(C(F)(F)F)ccc12 | 72 to 75 °C
CCOC(=O)COc1cccc2c1OCC(Br)C2=O (configuration not stated) | 92 to 93 °C
Cc1nc(=O)[nH]c2ccc(N(C)C)cc12 | 278 to 281 °C
Nc1ncc(C(=O)CBr)cc1Cl | 134 °C
Brc1ccc(-c2ccc(Br)cc2I)c(I)c1 | 89 °C
O=[N+]([O-])c1ccc(Oc2ccccc2Oc2ccc([N+](=O)[O-])c(O)c2)cc1O | 178 to 180 °C
CCCN1C(=O)C2CC(c3ccc([N+](=O)[O-])cc3)(C2)C1=O | 149 to 151 °C

Structure (SMILES) | melting point
Cc1cc(C)n(-c2nc(Nc3ccc(N4CCOCC4)cc3)c3ccccc3n2)n1 | 268 to 270 °C
Cc1[nH]c(=O)oc1C(=O)c1ccc(-n2ccnc2)cc1 | 320 °C
FC(F)(F)Oc1ccc(C2CCC3(CC2)OCCO3)cc1 | 41.2 °C
NC1=NS(=O)N=C1NCCCN(Cc1ccccc1F)c1ccccn1 (configuration not stated) | 180 to 182 °C
CC(C)c1ccc(S(=O)(=O)Nc2ccccc2C(=O)NCCc2ncc[nH]2)cc1 | 210 to 218 °C
Cc1oc(-c2ccccc2)nc1Cc1cc2cc(Br)ccc2o1 | 98 to 100 °C
CC1CCc2c(Cl)c(Cl)cc3c(=O)c(C(=O)O)cn1c23 (configuration not stated) | 269 to 271 °C
O=C(c1ccccc1O)c1ccc(O)c(Cl)c1Cl | 200 to 202 °C
CN1C(=O)C2(COc3cc4c(cc32)OCCO4)c2c(NC(=O)c3ccccc3)cccc21 (configuration not stated) | 192 to 194 °C
CS(=O)(=O)c1cc(C(O)C2CCCCC2)c2ccccc2n1 (configuration not stated) | 83 °C
CCN(CC)CCCC(=O)O | 45 to 47 °C
CCCCCCC(NS(=O)(=O)c1ccc(Cl)cc1)C(=O)Nc1ccc(CC(=O)OCC)cc1 (racemic) | 110 to 112 °C
COc1ccc(C=C(Br)Br)c(OC)c1 | 147 to 148 °C
COc1ccc(-c2coc3ccc(-c4nnc(SCc5cccc(Cl)c5)o4)cc23)cc1 | 155 to 156 °C
CCC(=O)c1ccc(OC)c(OC(C)C)c1 | 58.1 to 58.7 °C
CC1CC(c2ccc(CCCCN)cc2)=NNC1=O (configuration not stated) | 118 to 120 °C
CCCCCCCCCCCCCCCCCCNP1OCC2(CO1)COP(NCCCCCCCCCCCCCCCCCC)OC2 (configuration not stated) | 67 to 70 °C
CC1COC(c2ccccc2)(c2ccc(N)c([N+](=O)[O-])c2)O1 (configuration not stated) | 155 °C
CC(C)(C)C(=O)NC#N | 112 to 118 °C
COc1cn(-c2ccc(-n3nccc3OC(F)F)cc2F)nc(-c2ccnn2-c2ccccc2)c1=O | 177 to 179 °C
Clc1cc(Cl)cc(-c2n[nH]cc2I)c1 | 170 °C
CCCCCCCCN1CCN(O)C1=O | 53.5 to 55.5 °C
Cc1ccc(Sc2cc([N+](=O)[O-])cc3c2C(=O)OC3=O)cc1 | 180 to 182 °C
c1ccc(C2=NN=C(N3CCOCC3)SC2)cc1 | 173 to 174 °C

Source: a melting point compilation (Tetko et al.; mined from patent text by program, amines drawn as free bases though some values may be those of a salt)
